Test results reported in patent publication US11351155B2, “Compositions and methods of modulating s-nitrosylation” (CASE WESTERN RESERVE UNIVERSITY, priority 2014, dated 2022).
Values belong to the molecule of their own block, whether it stands above or below them.

How the values were obtained:
Adh6 = biological target: T1, Adh6 (Saccharomyces cerevisiae, UniProt Q04894); assay: Kinetic analysis and substrate specificity of SNO-CoA reductase activity of purified Adh6; assay type: biochemical, yeast (S. cerevisiae); conditions: purified Adh6 20 nM, NADPH 100 μM, substrate 100 μM (FIG. 2D)
T1 construct: endogenous in cells; host or cells: S. cerevisiae cells; five-step chromatographic purification from crude extract
T1 sequence (Q04894 1-360): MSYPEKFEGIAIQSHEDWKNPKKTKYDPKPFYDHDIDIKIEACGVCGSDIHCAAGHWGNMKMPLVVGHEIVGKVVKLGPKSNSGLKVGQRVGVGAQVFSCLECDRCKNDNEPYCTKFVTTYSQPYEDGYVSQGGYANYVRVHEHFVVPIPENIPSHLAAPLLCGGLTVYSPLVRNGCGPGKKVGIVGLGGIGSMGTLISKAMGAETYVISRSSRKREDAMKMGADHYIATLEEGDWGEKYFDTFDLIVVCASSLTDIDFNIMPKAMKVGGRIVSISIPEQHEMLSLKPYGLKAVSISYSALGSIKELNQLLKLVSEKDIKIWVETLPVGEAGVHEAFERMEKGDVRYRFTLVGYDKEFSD
Procedure: (§1) Kinetic analysis was carried out with purified Adh6 and AKR1A1. The reactions contained a fixed concentration of NADPH (100 μM) and several concentrations of SNO-CoA.
(§2) Kinetic analysis was carried out employing assay conditions as above. For Km determination, reactions (4-5 replicates) were performed with a fixed amount of purified Adh6, 100 μM NADPH and SNO-CoA concentrations of 16-375 μM. Initial rates were calculated from the absorbance decrease at 340 nm using a combined extinction coefficient of 7.06 mM^−1 cm^−1 for SNO and NADPH. The kcat was determined at saturating substrate concentrations.

intact yeast cells = assay: SNO-RAC/iTRAQ identification of SNO-proteins in treated intact yeast; assay type: cell-based, yeast (S. cerevisiae); conditions: intact cells treated with 100 μM for 2 hr
Procedure: Protein S-nitrosylation was assessed by the SNO-RAC assay, and differences in the profile of protein S-nitrosylation in WT versus adh6Δ yeast (under basal growth conditions and upon treatment of cells with EtCysNO) were quantified by iTRAQ labeling.
(§3) For analysis in yeast, cells were grown to absorbance 600 nm=1.0 and lysed by bead beating in lysis buffer (20 mM bis-tris propane, pH 7.0, 50 mM NaCl, 100 mM EDTA, 100 μM DTPA, 1 mM PMSF and protease inhibitor cocktail (Roche)). The lysate was centrifuged at 20,000 g for 10 min and the supernatant was adjusted to 1 mg/ml protein and retained for analysis. For analysis of SNO-proteins by mercury-coupled-photolysis-chemiluminescence, samples were processed as previously described. […] Eluates were analyzed by SDS-PAGE followed by Western blotting for erg10 (see below) or, for mass spectrometric analysis, individual lanes were excised from the gel and subjected to trypsin digest prior to processing for LC/MS-MS (see below). […]
(§4) Prior to analysis by LC-MS/MS, samples were passed through a C18 spin column (Thermo Pierce, Rockford, Ill.) and reconstituted in 0.1% formic acid. […] For peptide identification and quantification using iTRAQ reporter ions, MS analysis was performed using a hybrid linear ion trap Orbitrap Velos mass spectrometer (LTQ-Orbitrap Velos, Thermo, Waltham, Mass.). […]

WT and adh6Δ yeast = assay: Metabolomic analysis of mevalonate, CoA and acetyl-CoA in treated yeast; assay type: cell-based, yeast (S. cerevisiae); conditions: 2 hr
Procedure: In extracts of WT and adh6Δ yeast (untreated and following treatment with EtCysNO), mevalonate, CoA and acetyl-CoA were separated and quantified by GC-MS (mevalonate) or LC-MS/MS (CoA, acetyl-CoA).
Yeast cells grown to mid-log phase (absorbance 600 nm=0.4-0.6) were left untreated or treated with EtCysNO (100 μM) for 2 hrs. Cells were harvested and washed with ice-cold H2O containing 0.1 mM EDTA or DTPA and stored at −80° C. until further analysis. To the samples, 3 ml of MeOH: H2O (8:2) was added followed by addition of 100 μl of D4 (1 mM) citrate as an internal standard. Samples were homogenized for 1 minute and 1 ml of the subsequent homogenate was taken and centrifuged at 800 g for 20 minutes. Supernatant was dried by nitrogen gas. 60 μl of N,O-bistrifluoroacetaniide was added to the dried residue and incubated at 70° C. for 30 minutes. Analyses were carried out on an Agilent 5973 mass spectrometer, linked to a 6890 gas chromatograph system equipped with an autosampler. An Agilent VF-5MS capillary column (60 m×0.32 mm×0.25 μm) was used for chromatographic separation. The carrier gas was helium (1 ml/min) with a pulse pressure of 20.1 p.s.i. The injection was in splitless mode. The temperature for both inlet and transfer line was set at 300° C. The ion source and quadrupole temperature were set at 230 and 150° C. The GC temperature program was as follows: start at 80° C., hold for 1 min, and increase by 10° C./min to 300° C., and it remained at 300° C. for 9 min. Mevalonate and internal standard signals were monitored at its nominal m/z with SIM mode. The m/z monitored for mevalonate and internal standard: 349 and 469, respectively. All the masses were measured in Electron Impact Ion Source. The retention times of mevalonate and internal standard are 15.2 and 18.1 minutes, respectively.
Yeast cells grown to mid-log phase (absorbance 600 nm=0.4-0.6) were left untreated or treated with EtCysNO (500 μM) for 2 hrs. […]

[1] = biological target: T2, Erg10 (acetoacetyl-CoA thiolase) (Saccharomyces cerevisiae, UniProt P41338); assay: Assay for acetoacetyl-CoA thiolase (Erg10) activity; assay type: biochemical, yeast (S. cerevisiae); conditions: for Effect on Erg10 thiolase activity: yeast extracts and purified protein (FIG. 4D, E)
T2 construct: Erg10 activity was assayed in extracts of WT yeast in the presence or absence of SNO-CoA; endogenous in cells; host or cells: wild-type S. cerevisiae lysate/extract
T2 sequence (P41338 whole entry): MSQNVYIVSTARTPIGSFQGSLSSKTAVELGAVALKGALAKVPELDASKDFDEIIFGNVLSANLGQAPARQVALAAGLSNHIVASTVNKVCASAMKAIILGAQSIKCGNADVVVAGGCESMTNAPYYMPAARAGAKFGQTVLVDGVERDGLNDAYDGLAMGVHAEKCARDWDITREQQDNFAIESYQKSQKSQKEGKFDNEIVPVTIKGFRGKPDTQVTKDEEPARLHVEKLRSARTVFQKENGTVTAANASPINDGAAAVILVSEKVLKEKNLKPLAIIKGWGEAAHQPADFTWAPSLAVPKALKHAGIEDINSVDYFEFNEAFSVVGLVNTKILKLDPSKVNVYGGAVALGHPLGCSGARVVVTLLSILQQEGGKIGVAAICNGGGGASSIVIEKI
Procedure: Acetoacetyl-CoA thiolase activity was assayed in the physiological forward direction (2 acetyl-CoA→acetoactyl-CoA+CoA-SH) by following the formation of CoA-SH with 5,5′-dithiobis(2-nitrobenzoic acid) (DTNB) at 412 nm, as outlined recently for assay of HMG-CoA synthase activity. This approach avoids background absorbance in lysates and interference from added SNO-CoA in the reverse-reaction assay of acetoacetyl-CoA consumption at 300 nm (acetoacetyl-CoA+CoA-SH→2 acetyl-CoA). The assay was performed in 20 mM tris pH 8.0, containing 0.1 mM EDTA and 0.1 mM DTPA. The reaction mixture (1 ml) contained yeast lysate and 100 μM acetyl-CoA. Reaction without the addition of acetyl-CoA was used as background control. In some experiments, various concentrations of GSNO or SNO-CoA were also added. The reaction was monitored following the addition of 0.5 mM DTNB for 3 min at 412 nm. Thiolase activity was determined using rates between 1 and 3 minutes.

[2] = tested on: lysates of wild-type (WT) yeast; assay: SNO-RAC/LC-MS/MS identification of SNO-proteins in treated yeast lysates; assay type: biochemical, yeast (S. cerevisiae); conditions: lysates treated with 60 μM for 10 min
Procedure: as §3, with “described. For SNO-RAC, some samples (1 mg/ml) were left untreated or treated for 10 min with 60 μM SNO-CoA±100 μM NADPH. The reaction was stopped by adding 3 volumes of ice-cold acetone, followed by precipitation at −20° C. for 20 min.” for “described.”
as §4

[3] = substrate: CC(C)(COP(=O)(O)OP(=O)(O)OC[C@H]1O[C@@H](n2cnc3c(N)ncnc32)[C@H](O)[C@@H]1OP(=O)(O)O)[C@@H](O)C(=O)NCCC(=O)NCCSN=O; assay: Kinetic analysis of SNO-CoA reductase activity of purified AKR1A1; assay type: biochemical, bovine; conditions: other: purified AKR1A1, 100 μM NADPH; pH 7.0
Procedure: as §1
Kinetic analyses were carried out in 50 mM phosphate buffer, pH 7.0, containing 100 μM EDTA and DTPA. For Km determination, reactions (2-4 replicates) were performed with a fixed amount of purified AKR1A1, 100 μM NADPH and 2-500 μM SNO-CoA. Initial rates were calculated from the absorbance decrease at 340 nm. The kcat was determined at saturating substrate concentrations.

[4] = substrate: CC(C)(COP(=O)(O)OP(=O)(O)OC[C@H]1O[C@@H](n2cnc3c(N)ncnc32)[C@H](O)[C@@H]1OP(=O)(O)O)[C@@H](O)C(=O)NCCC(=O)NCCSN=O; assay: Kinetic analysis and substrate specificity of SNO-CoA reductase activity of purified Adh6; assay type: biochemical, yeast (S. cerevisiae); conditions: other: purified Adh6, 100 μM NADPH
Procedure: as §1, §2

- Metabolism by Adh6 (NADPH consumption) (Adh6): does not metabolize
Molecule: N[C@@H](CSN=O)C(=O)O [CysNO, S-nitroso-cysteine]

Molecule: CCOC(=O)[C@@H](N)CSN=O [EtCysNO, S-nitroso-cysteine ethyl ester]
- Number of SNO-proteins identified (intact yeast cells): 103
- Change of mevalonate levels (WT and adh6Δ yeast; adh6Δ yeast, 100 μM): significant decrease
- Change of free CoA levels (WT and adh6Δ yeast; yeast, 500 μM): large decreases
- Change of acetyl-CoA levels (WT and adh6Δ yeast; yeast, 500 μM, increase larger in adh6Δ versus WT cells): increased

- Metabolism by Adh6 (NADPH consumption) (Adh6): specific for SNO-CoA versus GSNO
Molecule: N[C@@H](CCC(=O)N[C@@H](CSN=O)C(=O)NCC(=O)O)C(=O)O [GSNO, S-nitrosoglutathione]
- Effect on Erg10 thiolase activity [1]: neither GSNO (FIG. 4D) nor succinyl-CoA (a CoA analogue) (FIG. 4E) had a significant effect

Molecule: CC(C)(COP(=O)(O)OP(=O)(O)OC[C@H]1O[C@@H](n2cnc3c(N)ncnc32)[C@H](O)[C@@H]1OP(=O)(O)O)[C@@H](O)C(=O)NCCC(=O)NCCSN=O [SNO-CoA, S-nitroso-CoA]
- IC50 ([1]; purified protein, read-out: IC50 for inhibition of Erg10 thiolase activity): 4 µM
- Effect on Erg10 thiolase activity [1]: potently inhibited
- Number of SNO-proteins identified [2]: 345

Molecule: CC(C)(COP(=O)(O)OP(=O)(O)OC[C@H]1O[C@@H](n2cnc3c(N)ncnc32)[C@H](O)[C@@H]1OP(=O)(O)O)[C@@H](O)C(=O)NCCC(=O)NCCSC(=O)CCC(=O)O [succinyl-CoA]
- Effect on Erg10 thiolase activity [1]: neither GSNO (FIG. 4D) nor succinyl-CoA (a CoA analogue) (FIG. 4E) had a significant effect

B1: AKR1A1 (Bos taurus) (protein)
chain: MAASCILLHTGQKMPLIGLGTWKSDPGQVKAAIKYALSVGYRHIDCAAIYGNETEIGEALKENVGPGKLVPREELFVTSKLWNTKHHPEDVEPALRKTLADLQLEYLDLYLMHWPYAFERGDSPFPKNADGTIRYDSTHYKETWRALEALVAKGLVRALGLSNFNSRQIDDVLSVASVRPAVLQVECHPYLAQNELIAHCQARNLEVTAYSPLGSSDRAWRDPEEPVLLKEPVVLALAEKHGRSPAQILLRWQVQRKVSCIPKSVTPSRILENIQVFDFTFSPEEMKQLDALNKNLRFIVPMLTVDGKRVPRDAGHPLYPFNDPY
notes: Bovine kidney tissue (˜50 g) was suspended in 100 ml of lysis buffer; tissue Rockland Immunochemicals Inc. (tissue supplier); host or cells: bovine kidney
- Km [3]: 20.5 ± 1.8 µM
- kcat [3]: 627 ± 23.76 min⁻¹

B2: Adh6 (Saccharomyces cerevisiae S288C) (protein)
chain: MSYPEKFEGIAIQSHEDWKNPKKTKYDPKPFYDHDIDIKIEACGVCGSDIHCAAGHWGNMKMPLVVGHEIVGKVVKLGPKSNSGLKVGQRVGVGAQVFSCLECDRCKNDNEPYCTKFVTTYSQPYEDGYVSQGGYANYVRVHEHFVVPIPENIPSHLAAPLLCGGLTVYSPLVRNGCGPGKKVGIVGLGGIGSMGTLISKAMGAETYVISRSSRKREDAMKMGADHYIATLEEGDWGEKYFDTFDLIVVCASSLTDIDFNIMPKAMKVGGRIVSISIPEQHEMLSLKPYGLKAVSISYSALGSIKELNQLLKLVSEKDIKIWVETLPVGEAGVHEAFERMEKGDVRYRFTLVGYDKEFSD
notes: endogenous in cells; host or cells: S. cerevisiae cells; five-step chromatographic purification from crude extract
- Km [4]: 180.5 ± 16.8 µM
- kcat [4]: 2596.5 ± 110.7 min⁻¹
